Experimental data from the supplement of paper PMC4932681.
“And” between values parts separate entries of the source, which are not always exact repeats. Equal entries are not always repeated.

What was measured:
Experiment in all cases: viability inhibition at highest dose (% inhibition); higher = more growth inhibition
T-47D = conditions: 72 h
Experimental: (§1)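 Percent inhibition of viability (CellTiter-Glo, 72 h) at the highest tested concentration (D5), normalised to DMSO (0%) and 100 µM benzethonium chloride (100%). Resistant lines and the 'in 1µM tamoxifen' arms were tested in 1 µM 4-OH-tamoxifen.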

MCF-7 Tam1 = conditions: 4-OH-tamoxifen in medium 1 µM; 72 h
Experimental: as §1

BT-474 Tam1 = conditions: 4-OH-tamoxifen in medium 1 µM; 72 h
Experimental: as §1

BT-474 Tam2 = conditions: 4-OH-tamoxifen in medium 1 µM; 72 h
Experimental: as §1

MCF-7 = conditions: 72 h
Experimental: as §1

ZR-75-1 Tam2 = conditions: 4-OH-tamoxifen in medium 1 µM; 72 h
Experimental: as §1

T-47D Tam2 = conditions: 4-OH-tamoxifen in medium 1 µM; 72 h
Experimental: as §1

ZR-75-1 = conditions: 72 h
Experimental: as §1

BT-474 = conditions: 72 h
Experimental: as §1

ZR-75-1 Tam1 = conditions: 4-OH-tamoxifen in medium 1 µM; 72 h
Experimental: as §1

T-47D Tam1 = conditions: 4-OH-tamoxifen in medium 1 µM; 72 h
Experimental: as §1

## CCc1c(C(=O)C(N)=O)c2c(OCC(=O)O)cccc2n1Cc1ccccc1 [Varespladib] (drug 10000 nM)
T-47D; 4-OH-tamoxifen in medium 0 µM
  viability inhibition at highest dose: -1.77
T-47D; 4-OH-tamoxifen in medium 1 µM
  viability inhibition at highest dose: -10.9
MCF-7 Tam1
  viability inhibition at highest dose: -3.81
BT-474 Tam1
  viability inhibition at highest dose: -12.8
BT-474 Tam2
  viability inhibition at highest dose: -5.77
MCF-7; 4-OH-tamoxifen in medium 0 µM
  viability inhibition at highest dose: 13.3
MCF-7; 4-OH-tamoxifen in medium 1 µM
  viability inhibition at highest dose: -9.89
ZR-75-1 Tam2
  viability inhibition at highest dose: -6.3
T-47D Tam2
  viability inhibition at highest dose: -7.24
ZR-75-1; 4-OH-tamoxifen in medium 0 µM
  viability inhibition at highest dose: -0.701
ZR-75-1; 4-OH-tamoxifen in medium 1 µM
  viability inhibition at highest dose: -2.07
BT-474; 4-OH-tamoxifen in medium 0 µM
  viability inhibition at highest dose: 0.192
BT-474; 4-OH-tamoxifen in medium 1 µM
  viability inhibition at highest dose: -17.3
ZR-75-1 Tam1
  viability inhibition at highest dose: -2.44
T-47D Tam1
  viability inhibition at highest dose: -7.33

## CC(C)(C)c1cnc(CSc2cnc(NC(=O)C3CCNCC3)s2)o1 [SNS-032] (drug 10000 nM)
T-47D; 4-OH-tamoxifen in medium 0 µM
  viability inhibition at highest dose: 22.4
T-47D; 4-OH-tamoxifen in medium 1 µM
  viability inhibition at highest dose: 4.07
MCF-7 Tam1
  viability inhibition at highest dose: 31.3
BT-474 Tam1
  viability inhibition at highest dose: 88.7
BT-474 Tam2
  viability inhibition at highest dose: 87.2
MCF-7; 4-OH-tamoxifen in medium 0 µM
  viability inhibition at highest dose: 47.4
MCF-7; 4-OH-tamoxifen in medium 1 µM
  viability inhibition at highest dose: 51.2
ZR-75-1 Tam2
  viability inhibition at highest dose: 52.6
T-47D Tam2
  viability inhibition at highest dose: 32
ZR-75-1; 4-OH-tamoxifen in medium 0 µM
  viability inhibition at highest dose: 42.4
ZR-75-1; 4-OH-tamoxifen in medium 1 µM
  viability inhibition at highest dose: 43.3
BT-474; 4-OH-tamoxifen in medium 0 µM
  viability inhibition at highest dose: 10.3
BT-474; 4-OH-tamoxifen in medium 1 µM
  viability inhibition at highest dose: 33.1
ZR-75-1 Tam1
  viability inhibition at highest dose: 45.3
T-47D Tam1
  viability inhibition at highest dose: 49.1

## COc1c(C)cnc(Cn2cnc3c(Cl)nc(N)nc32)c1C [BIIB021] (drug 10000 nM)
T-47D; 4-OH-tamoxifen in medium 0 µM
  viability inhibition at highest dose: 65.4
T-47D; 4-OH-tamoxifen in medium 1 µM
  viability inhibition at highest dose: 51.5
MCF-7 Tam1
  viability inhibition at highest dose: 26.1
BT-474 Tam1
  viability inhibition at highest dose: 72.2
BT-474 Tam2
  viability inhibition at highest dose: 70.9
MCF-7; 4-OH-tamoxifen in medium 0 µM
  viability inhibition at highest dose: 56.8
MCF-7; 4-OH-tamoxifen in medium 1 µM
  viability inhibition at highest dose: 45.6
ZR-75-1 Tam2
  viability inhibition at highest dose: 39.3
T-47D Tam2
  viability inhibition at highest dose: 50
ZR-75-1; 4-OH-tamoxifen in medium 0 µM
  viability inhibition at highest dose: 32.2
ZR-75-1; 4-OH-tamoxifen in medium 1 µM
  viability inhibition at highest dose: 34.3
BT-474; 4-OH-tamoxifen in medium 0 µM
  viability inhibition at highest dose: 48.2
BT-474; 4-OH-tamoxifen in medium 1 µM
  viability inhibition at highest dose: 70.8
ZR-75-1 Tam1
  viability inhibition at highest dose: 36.3
T-47D Tam1
  viability inhibition at highest dose: 46

## c1ccc2c(CCNc3ccc(Nc4ccncc4)cc3)c[nH]c2c1 (drug 10000 nM)
T-47D; 4-OH-tamoxifen in medium 0 µM
  viability inhibition at highest dose: 16.5
T-47D; 4-OH-tamoxifen in medium 1 µM
  viability inhibition at highest dose: 9.19
MCF-7 Tam1
  viability inhibition at highest dose: 12.8
BT-474 Tam1
  viability inhibition at highest dose: 91.8
BT-474 Tam2
  viability inhibition at highest dose: 37.9
MCF-7; 4-OH-tamoxifen in medium 0 µM
  viability inhibition at highest dose: 62.4
MCF-7; 4-OH-tamoxifen in medium 1 µM
  viability inhibition at highest dose: 22.2
ZR-75-1 Tam2
  viability inhibition at highest dose: 32.2
T-47D Tam2
  viability inhibition at highest dose: 22.6
ZR-75-1; 4-OH-tamoxifen in medium 0 µM
  viability inhibition at highest dose: 14
ZR-75-1; 4-OH-tamoxifen in medium 1 µM
  viability inhibition at highest dose: 25.5
BT-474; 4-OH-tamoxifen in medium 0 µM
  viability inhibition at highest dose: -5.93
BT-474; 4-OH-tamoxifen in medium 1 µM
  viability inhibition at highest dose: 78
ZR-75-1 Tam1
  viability inhibition at highest dose: 21.8
T-47D Tam1
  viability inhibition at highest dose: 20.6

## C=CC(=O)Nc1cc2c(Nc3ccc(F)c(Cl)c3)ncnc2cc1OCCCN1CCOCC1 [Canertinib] (drug 10000 nM)
T-47D; 4-OH-tamoxifen in medium 0 µM
  viability inhibition at highest dose: 38.9
T-47D; 4-OH-tamoxifen in medium 1 µM
  viability inhibition at highest dose: 24.2
MCF-7 Tam1
  viability inhibition at highest dose: 28
BT-474 Tam1
  viability inhibition at highest dose: 90
BT-474 Tam2
  viability inhibition at highest dose: 93.5
MCF-7; 4-OH-tamoxifen in medium 0 µM
  viability inhibition at highest dose: 64.2
MCF-7; 4-OH-tamoxifen in medium 1 µM
  viability inhibition at highest dose: 71.1
ZR-75-1 Tam2
  viability inhibition at highest dose: 44.3
T-47D Tam2
  viability inhibition at highest dose: 63.2
ZR-75-1; 4-OH-tamoxifen in medium 0 µM
  viability inhibition at highest dose: 41.4
ZR-75-1; 4-OH-tamoxifen in medium 1 µM
  viability inhibition at highest dose: 35.5
BT-474; 4-OH-tamoxifen in medium 0 µM
  viability inhibition at highest dose: 80.1
BT-474; 4-OH-tamoxifen in medium 1 µM
  viability inhibition at highest dose: 92.3
ZR-75-1 Tam1
  viability inhibition at highest dose: 37.1
T-47D Tam1
  viability inhibition at highest dose: 46.6

## Cc1cccc(-c2nn3c(c2-c2ccnc4ccc(C(N)=O)cc24)CCC3)n1 (drug 1000 nM)
T-47D; 4-OH-tamoxifen in medium 0 µM
  viability inhibition at highest dose: -10.5
T-47D; 4-OH-tamoxifen in medium 1 µM
  viability inhibition at highest dose: -3.66
MCF-7 Tam1
  viability inhibition at highest dose: -5.09
BT-474 Tam1
  viability inhibition at highest dose: -3.5
BT-474 Tam2
  viability inhibition at highest dose: -0.548
MCF-7; 4-OH-tamoxifen in medium 0 µM
  viability inhibition at highest dose: -2
MCF-7; 4-OH-tamoxifen in medium 1 µM
  viability inhibition at highest dose: 17.5
ZR-75-1 Tam2
  viability inhibition at highest dose: 0.591
T-47D Tam2
  viability inhibition at highest dose: -11.8
ZR-75-1; 4-OH-tamoxifen in medium 0 µM
  viability inhibition at highest dose: -10.5
ZR-75-1; 4-OH-tamoxifen in medium 1 µM
  viability inhibition at highest dose: -14.4
BT-474; 4-OH-tamoxifen in medium 0 µM
  viability inhibition at highest dose: -8.01
BT-474; 4-OH-tamoxifen in medium 1 µM
  viability inhibition at highest dose: -14
ZR-75-1 Tam1
  viability inhibition at highest dose: -1.45
T-47D Tam1
  viability inhibition at highest dose: 8.11

## Cc1nc(Nc2ncc(C(=O)Nc3c(C)cccc3Cl)s2)cc(N2CCN(CCO)CC2)n1 [Dasatinib] (drug 1000 nM)
T-47D; 4-OH-tamoxifen in medium 1 µM
  viability inhibition at highest dose: 30.8 and 16.6
BT-474 Tam1
  viability inhibition at highest dose: 37.1 and 33.4
MCF-7; 4-OH-tamoxifen in medium 1 µM
  viability inhibition at highest dose: 12.7 and 8.15
ZR-75-1 Tam2
  viability inhibition at highest dose: -36.2 and -32.2
T-47D Tam2
  viability inhibition at highest dose: 35.6 and 31.4
ZR-75-1; 4-OH-tamoxifen in medium 0 µM
  viability inhibition at highest dose: -61.6 and -72.5
ZR-75-1; 4-OH-tamoxifen in medium 1 µM
  viability inhibition at highest dose: -39.5 and -41.9
BT-474; 4-OH-tamoxifen in medium 1 µM
  viability inhibition at highest dose: 1.98 and 3.29
ZR-75-1 Tam1
  viability inhibition at highest dose: -34.5 and -23.8
T-47D Tam1
  viability inhibition at highest dose: 35.9 and 30.8
